Test results taken from patent US20140107171A1, “Methods of Treating an Overweight or Obese Subject” (Zafgen, Inc., priority 2008, published 2014).

System: diet-induced obese mice
Test: Weight loss study in diet-induced obese mice, oral administration
Assay type: in vivo
Conditions: C57BL/6NTac mice on 60% fat diet; 1.0 mg/kg orally in 10% gelucire in deionised water, once a day for 8 days
Protocol: A weight loss study is conducted in obese mice. The mice in this study are not genetically obese, BUT prior to and during the study, obesity is induced by a high-fat diet. Twelve week-old C57BL/6NTac mice, are maintained on a 60% fat diet prior to and during the study, are separated into […], eight animals per group. Average body weight of the mice is taken at the start of the study.
Each of six groups is orally administered 1.0 mg/kg of a compound disclosed herein in 10% gelucire in DEIONISED water. Each of these six groups is administered a different compound. One group is orally administered fumagillin at 1.0 mg/kg in 10% gelucire in deionised water, and one group is administered 10% gelucire in deionised water (vehicle). Mice receive administrations once a day for 8 days.

**Q.** With `CO[C@@H]1[C@H](OC(=O)/C=C/C=C/C=C/C=C/C(=O)O)CC[C@]2(CO2)[C@H]1[C@@]1(C)O[C@@H]1CC=C(C)C` [fumagillin] as the compound, how does the “body weight change over the course of the 8 days” value read?
**A.** Its value is “weight over the course of the 8 days”.
